Measurements reported in US6451325B1, “Adjuvant formulation comprising a submicron oil droplet emulsion” (Chiron Corporation, priority 1989, dated 2002).

System: influenza HA (Parke-Davis FLUOGEN)
Design: species or system Goats
Details: in vivo

CCCCCCCCCCCCCCCC(=O)OC[C@H](COP(=O)(O)OCCNC(=O)[C@H](C)NC(=O)CC[C@@H](NC(=O)[C@H](C)NC(=O)[C@@H](C)O[C@H]1[C@H](O)[C@@H](CO)OC(O)[C@@H]1NC(C)=O)C(N)=O)OC(=O)CCCCCCCCCCCCCCC (stereo partly drawn) [MTP-PE in PBS, N-acetylmuramyl-L-alanyl-D-isoglutaminyl-L-alanine-2-[1,2-dipalmitoyl-sn-glycero-3-(hydroxyphosphoryloxy)]ethylamide]
stimulation of antibody titer after one immunization: no stimulation of antibody titer
